Literature values as cited in paper PMC3433420 (PLoS ONE, 2012).
pKd: −log10 of the molar value. Like-named read-outs stand apart in the source and are kept apart here.

Target: SH2 and PTB domains
Conditions: cited from earlier work
From the text: Supplement pone.0044471.s022.xlsx, sheet "Most recent PM interactions" | column: Kd || Supplement pone.0044471.s022.xlsx, sheet "All original PM interactions" | column: Kd

[1] = protein PLCG2-NC, ref Kaushansky et al. Chem and Biol 2008

**Q.** With “AEDEpYVNEPLYLd [ErbB4 pY1202, N-terminally rhodamine-labeled 13-mer phosphopeptide]” as the substance, how does the pKd (protein SYK-N, ref Kaushansky et al. Chem and Biol 2008) read?
**A.** 8.22

**Q.** What does the source list for ALESILHRIpYTHQSDVWd [ErbB1 891]?
**A.** pKd (Protein HSH2D, most recent PM interactions, ref Kaushansky et al. Mol Biosys 2008): 5.95; pKd (Protein TNS4, most recent PM interactions, ref Kaushansky et al. Mol Biosys 2008): 6.52

**Q.** What does the source list for “DADEpYLIPQQGFd [ErbB1 pY1016, N-terminally rhodamine-labeled 13-mer phosphopeptide]”?
**A.** pKd (protein ABL2, ref Jones et al. 2006 / Kaushansky et al. Mol Biosys 2008 / Kaushansky et al. Chem and Biol 2008): 6.55; pKd (protein BLK, ref Jones et al. 2006 / Kaushansky et al. Mol Biosys 2008 / Kaushansky et al. Chem and Biol 2008): 6.18; pKd (protein CRK, ref Jones et al. 2006 / Kaushansky et al. Mol Biosys 2008 / Kaushansky et al. Chem and Biol 2008): 6.33; pKd (protein CRKL, ref Jones et al. 2006 / Kaushansky et al. Mol Biosys 2008 / Kaushansky et al. Chem and Biol 2008): 6.00; pKd (protein NCK1, ref Jones et al. 2006 / Kaushansky et al. Mol Biosys 2008 / Kaushansky et al. Chem and Biol 2008): 6.00; pKd (protein NCK2, ref Jones et al. 2006 / Kaushansky et al. Mol Biosys 2008 / Kaushansky et al. Chem and Biol 2008): 5.70; pKd (protein PIK3R1-C, ref Jones et al. 2006 / Kaushansky et al. Mol Biosys 2008 / Kaushansky et al. Chem and Biol 2008): 6.06; pKd (protein PIK3R1-N, ref Jones et al. 2006 / Kaushansky et al. Mol Biosys 2008 / Kaushansky et al. Chem and Biol 2008): 6.19; pKd (protein PIK3R1-NC, ref Jones et al. 2006 / Kaushansky et al. Mol Biosys 2008 / Kaushansky et al. Chem and Biol 2008): 6.52; pKd (protein PIK3R2-N, ref Jones et al. 2006 / Kaushansky et al. Mol Biosys 2008 / Kaushansky et al. Chem and Biol 2008): 6.37; pKd (protein PIK3R2-NC, ref Jones et al. 2006 / Kaushansky et al. Mol Biosys 2008 / Kaushansky et al. Chem and Biol 2008): 6.46; pKd (protein PIK3R3-C, ref Jones et al. 2006 / Kaushansky et al. Mol Biosys 2008 / Kaushansky et al. Chem and Biol 2008): 6.72; pKd (protein PIK3R3-N, ref Jones et al. 2006 / Kaushansky et al. Mol Biosys 2008 / Kaushansky et al. Chem and Biol 2008): 6.33; pKd (protein PIK3R3-NC, ref Jones et al. 2006 / Kaushansky et al. Mol Biosys 2008 / Kaushansky et al. Chem and Biol 2008): 6.70; pKd (protein PLCG1-C, ref Jones et al. 2006 / Kaushansky et al. Mol Biosys 2008 / Kaushansky et al. Chem and Biol 2008): 5.70; pKd (protein PLCG1-NC, ref Jones et al. 2006 / Kaushansky et al. Mol Biosys 2008 / Kaushansky et al. Chem and Biol 2008): 6.10; pKd (protein PLCG2-NC, ref Jones et al. 2006 / Kaushansky et al. Mol Biosys 2008 / Kaushansky et al. Chem and Biol 2008): 5.70; pKd (protein PTPN11-N, ref Jones et al. 2006 / Kaushansky et al. Mol Biosys 2008 / Kaushansky et al. Chem and Biol 2008): 6.42; pKd (protein RASA1-N, ref Jones et al. 2006 / Kaushansky et al. Mol Biosys 2008 / Kaushansky et al. Chem and Biol 2008): 6.11; pKd (protein RASA1-NC, ref Jones et al. 2006 / Kaushansky et al. Mol Biosys 2008 / Kaushansky et al. Chem and Biol 2008): 5.85; pKd (protein SH2D3A, ref Jones et al. 2006 / Kaushansky et al. Mol Biosys 2008 / Kaushansky et al. Chem and Biol 2008): 5.70; pKd (protein SH2D3C, ref Jones et al. 2006 / Kaushansky et al. Mol Biosys 2008 / Kaushansky et al. Chem and Biol 2008): 5.70; pKd (protein SHB, ref Jones et al. 2006 / Kaushansky et al. Mol Biosys 2008 / Kaushansky et al. Chem and Biol 2008): 5.70; pKd (protein SHC1-PTB, ref Jones et al. 2006 / Kaushansky et al. Mol Biosys 2008 / Kaushansky et al. Chem and Biol 2008): 6.20; pKd (protein SHC2-PTB, ref Jones et al. 2006 / Kaushansky et al. Mol Biosys 2008 / Kaushansky et al. Chem and Biol 2008): 6.18; pKd (protein SHC3, ref Jones et al. 2006 / Kaushansky et al. Mol Biosys 2008 / Kaushansky et al. Chem and Biol 2008): 6.66; pKd (protein SLA, ref Jones et al. 2006 / Kaushansky et al. Mol Biosys 2008 / Kaushansky et al. Chem and Biol 2008): 5.70; pKd (protein SYK-C, ref Jones et al. 2006 / Kaushansky et al. Mol Biosys 2008 / Kaushansky et al. Chem and Biol 2008): 6.03; pKd (protein SYK-NC, ref Jones et al. 2006 / Kaushansky et al. Mol Biosys 2008 / Kaushansky et al. Chem and Biol 2008): 6.28; pKd (protein TENC1, ref Jones et al. 2006 / Kaushansky et al. Mol Biosys 2008 / Kaushansky et al. Chem and Biol 2008): 5.70; pKd (protein TNS4, ref Jones et al. 2006 / Kaushansky et al. Mol Biosys 2008 / Kaushansky et al. Chem and Biol 2008): 6.04; pKd (protein VAV1, ref Jones et al. 2006 / Kaushansky et al. Mol Biosys 2008 / Kaushansky et al. Chem and Biol 2008): 5.98; pKd (protein VAV2, ref Jones et al. 2006 / Kaushansky et al. Mol Biosys 2008 / Kaushansky et al. Chem and Biol 2008): 5.70; pKd (protein VAV3, ref Jones et al. 2006 / Kaushansky et al. Mol Biosys 2008 / Kaushansky et al. Chem and Biol 2008): 5.70

**Q.** With “DAEEpYLVPQQGFd [ErbB2 pY1023, N-terminally rhodamine-labeled 13-mer phosphopeptide]” as the substance, how does the pKd (protein ABL2, ref Jones et al. 2006 / Kaushansky et al. Chem and Biol 2008) read?
**A.** 5.70

**Q.** And the pKd (protein BLK, ref Jones et al. 2006 / Kaushansky et al. Chem and Biol 2008)?
**A.** 5.70

**Q.** And the pKd (protein CRK, ref Jones et al. 2006 / Kaushansky et al. Chem and Biol 2008)?
**A.** 5.70

**Q.** And the pKd (protein CRKL, ref Jones et al. 2006 / Kaushansky et al. Chem and Biol 2008)?
**A.** 5.70

**Q.** What about the pKd (protein DAPP1, ref Jones et al. 2006 / Kaushansky et al. Chem and Biol 2008) of the same substance?
**A.** 5.70

**Q.** What about the pKd (protein FGR, ref Jones et al. 2006 / Kaushansky et al. Chem and Biol 2008) of the same substance?
**A.** 5.70

**Q.** What about the pKd (protein ITK, ref Jones et al. 2006 / Kaushansky et al. Chem and Biol 2008) of the same substance?
**A.** 5.70

**Q.** What about the pKd (protein LYN, ref Jones et al. 2006 / Kaushansky et al. Chem and Biol 2008) of the same substance?
**A.** 5.70

**Q.** What about the pKd (protein NCK2, ref Jones et al. 2006 / Kaushansky et al. Chem and Biol 2008) of the same substance?
**A.** 5.70

**Q.** What about the pKd (protein PIK3R1-C, ref Jones et al. 2006 / Kaushansky et al. Chem and Biol 2008) of the same substance?
**A.** 5.70

**Q.** And the pKd (protein PIK3R1-NC, ref Jones et al. 2006 / Kaushansky et al. Chem and Biol 2008)?
**A.** 5.79

**Q.** What about the pKd (protein PIK3R2-N, ref Jones et al. 2006 / Kaushansky et al. Chem and Biol 2008) of the same substance?
**A.** 5.71

**Q.** What about the pKd (protein PIK3R2-NC, ref Jones et al. 2006 / Kaushansky et al. Chem and Biol 2008) of the same substance?
**A.** 5.70

**Q.** And the pKd (protein PIK3R3-N, ref Jones et al. 2006 / Kaushansky et al. Chem and Biol 2008)?
**A.** 5.71

**Q.** And the pKd (protein PIK3R3-NC, ref Jones et al. 2006 / Kaushansky et al. Chem and Biol 2008)?
**A.** 6.28

**Q.** And the pKd (protein PLCG1-C, ref Jones et al. 2006 / Kaushansky et al. Chem and Biol 2008)?
**A.** 5.84

**Q.** And the pKd (protein PLCG1-NC, ref Jones et al. 2006 / Kaushansky et al. Chem and Biol 2008)?
**A.** 5.70

**Q.** What about the pKd (protein PTPN6-C, ref Jones et al. 2006 / Kaushansky et al. Chem and Biol 2008) of the same substance?
**A.** 5.70

**Q.** And the pKd (protein RASA1-N, ref Jones et al. 2006 / Kaushansky et al. Chem and Biol 2008)?
**A.** 5.70

**Q.** And the pKd (protein RASA1-NC, ref Jones et al. 2006 / Kaushansky et al. Chem and Biol 2008)?
**A.** 5.70

**Q.** What about the pKd (protein SH2B2, ref Jones et al. 2006 / Kaushansky et al. Chem and Biol 2008) of the same substance?
**A.** 5.70

**Q.** And the pKd (protein SH2D3A, ref Jones et al. 2006 / Kaushansky et al. Chem and Biol 2008)?
**A.** 5.70

**Q.** What about the pKd (protein SHC1-PTB, ref Jones et al. 2006 / Kaushansky et al. Chem and Biol 2008) of the same substance?
**A.** 5.70

**Q.** What about the pKd (protein SHC2-PTB, ref Jones et al. 2006 / Kaushansky et al. Chem and Biol 2008) of the same substance?
**A.** 5.70

**Q.** And the pKd (protein SHC3, ref Jones et al. 2006 / Kaushansky et al. Chem and Biol 2008)?
**A.** 5.70

**Q.** And the pKd (protein SLA2, ref Jones et al. 2006 / Kaushansky et al. Chem and Biol 2008)?
**A.** 5.70

**Q.** And the pKd (protein SLA, ref Jones et al. 2006 / Kaushansky et al. Chem and Biol 2008)?
**A.** 5.70

**Q.** And the pKd (protein SOCS1, ref Jones et al. 2006 / Kaushansky et al. Chem and Biol 2008)?
**A.** 5.70

**Q.** What about the pKd (protein SOCS2, ref Jones et al. 2006 / Kaushansky et al. Chem and Biol 2008) of the same substance?
**A.** 5.70

**Q.** What about the pKd (protein SRC, ref Jones et al. 2006 / Kaushansky et al. Chem and Biol 2008) of the same substance?
**A.** 6.12

**Q.** What about the pKd (protein SUPT6H, ref Jones et al. 2006 / Kaushansky et al. Chem and Biol 2008) of the same substance?
**A.** 6.04

**Q.** What about the pKd (protein SYK-NC, ref Jones et al. 2006 / Kaushansky et al. Chem and Biol 2008) of the same substance?
**A.** 6.43

**Q.** What about the pKd (protein TEC, ref Jones et al. 2006 / Kaushansky et al. Chem and Biol 2008) of the same substance?
**A.** 5.70

**Q.** What about the pKd (protein TENC1, ref Jones et al. 2006 / Kaushansky et al. Chem and Biol 2008) of the same substance?
**A.** 5.70

**Q.** What about the pKd (protein VAV1, ref Jones et al. 2006 / Kaushansky et al. Chem and Biol 2008) of the same substance?
**A.** 5.70

**Q.** And the pKd (protein VAV2, ref Jones et al. 2006 / Kaushansky et al. Chem and Biol 2008)?
**A.** 5.70

**Q.** And the pKd (protein VAV3, ref Jones et al. 2006 / Kaushansky et al. Chem and Biol 2008)?
**A.** 5.70

**Q.** What about the pKd (protein YES1, ref Jones et al. 2006 / Kaushansky et al. Chem and Biol 2008) of the same substance?
**A.** 5.93

**Q.** With “DEKEpYNADGGKMd [ErbB4 pY875, N-terminally rhodamine-labeled 13-mer phosphopeptide]” as the substance, how does the pKd [1] read?
**A.** 5.94

**Q.** With “DETEpYHADGGKVd [ErbB2 pY877, N-terminally rhodamine-labeled 13-mer phosphopeptide]” as the substance, how does the pKd (protein BLK, ref Kaushansky et al. Chem and Biol 2008) read?
**A.** 6.14

**Q.** What about the pKd (protein PLCG2-N, ref Kaushansky et al. Chem and Biol 2008) of the same substance?
**A.** 6.19

**Q.** And the pKd [1]?
**A.** 5.96

**Q.** And the pKd (protein RASA1-NC, ref Kaushansky et al. Chem and Biol 2008)?
**A.** 5.85

**Q.** What about the pKd (protein YES1, ref Kaushansky et al. Chem and Biol 2008) of the same substance?
**A.** 5.72
